Experimental data from PMC5791972 (PLoS ONE, 2018).
Read-outs that look alike come from different tables or passages of the source.

Legend:
[1] = target: T1, hTRPA1 (Homo sapiens, UniProt O75762); assay: Ion channel selectivity patch clamp; type: cell-based
T1 construct: The cDNAs for various full-length ion channels were subcloned into pcDNA5/TO; expressed in transfected cells; host or cells: T-REx-293 (general cell paragraph)

[2] = target: T2, 5-HT3 (h) (Homo sapiens, UniProt P46098); assay: biochemical
T2 sequence (P46098 24-478): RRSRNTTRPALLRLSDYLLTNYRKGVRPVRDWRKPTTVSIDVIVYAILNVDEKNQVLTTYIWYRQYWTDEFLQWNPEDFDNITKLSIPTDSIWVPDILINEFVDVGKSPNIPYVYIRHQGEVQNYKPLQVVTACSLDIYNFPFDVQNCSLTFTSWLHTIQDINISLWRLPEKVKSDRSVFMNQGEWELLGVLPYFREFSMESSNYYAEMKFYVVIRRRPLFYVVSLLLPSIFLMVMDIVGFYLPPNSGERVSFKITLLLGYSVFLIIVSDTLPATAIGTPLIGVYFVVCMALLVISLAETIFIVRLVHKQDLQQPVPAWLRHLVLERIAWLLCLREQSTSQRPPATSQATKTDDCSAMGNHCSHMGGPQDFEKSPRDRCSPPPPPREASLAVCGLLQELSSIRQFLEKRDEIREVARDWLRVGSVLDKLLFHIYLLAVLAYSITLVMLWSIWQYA

[3] = target: T3, D3 (h) (Homo sapiens, UniProt P35462); type: binding
T3 construct: host or cells: CHO cells
T3 sequence (P35462 whole entry): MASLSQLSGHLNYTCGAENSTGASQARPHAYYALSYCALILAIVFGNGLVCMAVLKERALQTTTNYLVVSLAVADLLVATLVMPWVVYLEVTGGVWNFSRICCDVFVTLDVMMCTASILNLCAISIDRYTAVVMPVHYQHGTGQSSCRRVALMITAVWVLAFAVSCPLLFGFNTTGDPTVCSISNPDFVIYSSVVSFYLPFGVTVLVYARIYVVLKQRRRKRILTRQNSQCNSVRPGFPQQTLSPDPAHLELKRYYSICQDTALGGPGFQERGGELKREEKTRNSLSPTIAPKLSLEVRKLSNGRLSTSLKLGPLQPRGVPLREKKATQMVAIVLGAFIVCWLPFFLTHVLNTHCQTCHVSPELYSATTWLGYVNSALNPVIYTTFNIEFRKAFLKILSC

[4] = target: T4, H1 (h) (Homo sapiens, UniProt P35367); type: binding; conditions: 1.0E-06 M
T4 construct: host or cells: HEK-293 cells
T4 sequence (P35367 whole entry): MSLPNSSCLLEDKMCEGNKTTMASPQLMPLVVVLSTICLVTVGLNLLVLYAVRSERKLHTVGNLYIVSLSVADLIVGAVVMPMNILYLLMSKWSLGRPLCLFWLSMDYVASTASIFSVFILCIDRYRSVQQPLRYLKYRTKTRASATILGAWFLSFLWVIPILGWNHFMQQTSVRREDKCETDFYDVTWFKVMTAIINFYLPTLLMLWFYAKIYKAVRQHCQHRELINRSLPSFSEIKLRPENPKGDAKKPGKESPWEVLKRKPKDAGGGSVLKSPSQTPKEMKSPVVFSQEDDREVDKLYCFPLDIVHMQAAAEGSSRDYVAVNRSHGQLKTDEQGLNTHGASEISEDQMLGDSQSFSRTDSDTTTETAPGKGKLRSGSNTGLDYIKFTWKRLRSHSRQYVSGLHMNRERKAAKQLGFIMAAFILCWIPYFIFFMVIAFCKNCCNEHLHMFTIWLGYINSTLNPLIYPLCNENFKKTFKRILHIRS

[5] = target: T5, hTRPV3 (Homo sapiens, UniProt Q8NET8); assay: Ion channel selectivity patch clamp; type: cell-based
T5 construct: The cDNAs for various full-length ion channels were subcloned into pcDNA5/TO; expressed in transfected cells; host or cells: T-REx-293 (general cell paragraph)
T5 sequence (Q8NET8 whole entry): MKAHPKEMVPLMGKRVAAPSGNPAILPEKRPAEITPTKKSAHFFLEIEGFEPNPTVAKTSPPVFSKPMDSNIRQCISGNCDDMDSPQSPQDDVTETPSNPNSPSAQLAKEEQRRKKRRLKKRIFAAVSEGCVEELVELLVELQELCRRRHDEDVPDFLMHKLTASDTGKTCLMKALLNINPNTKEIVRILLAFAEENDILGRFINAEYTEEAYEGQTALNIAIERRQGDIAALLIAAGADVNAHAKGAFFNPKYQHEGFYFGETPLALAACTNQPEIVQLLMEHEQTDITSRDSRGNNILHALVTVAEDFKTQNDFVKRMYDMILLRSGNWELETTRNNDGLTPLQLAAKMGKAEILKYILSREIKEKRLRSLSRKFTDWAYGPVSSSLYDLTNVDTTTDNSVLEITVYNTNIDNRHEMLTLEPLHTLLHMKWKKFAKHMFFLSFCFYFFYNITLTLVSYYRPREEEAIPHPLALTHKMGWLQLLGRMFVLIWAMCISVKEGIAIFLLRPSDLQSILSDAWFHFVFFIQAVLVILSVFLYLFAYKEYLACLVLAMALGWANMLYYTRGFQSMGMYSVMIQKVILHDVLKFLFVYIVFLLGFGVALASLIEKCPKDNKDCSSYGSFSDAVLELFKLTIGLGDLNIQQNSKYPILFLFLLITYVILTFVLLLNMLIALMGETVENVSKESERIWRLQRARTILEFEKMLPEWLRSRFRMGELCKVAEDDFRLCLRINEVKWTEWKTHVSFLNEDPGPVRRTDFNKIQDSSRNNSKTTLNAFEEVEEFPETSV

[6] = target: T6, M5 (h) (Homo sapiens, UniProt P08912); type: binding
T6 construct: host or cells: CHO cells
T6 sequence (P08912 1-532): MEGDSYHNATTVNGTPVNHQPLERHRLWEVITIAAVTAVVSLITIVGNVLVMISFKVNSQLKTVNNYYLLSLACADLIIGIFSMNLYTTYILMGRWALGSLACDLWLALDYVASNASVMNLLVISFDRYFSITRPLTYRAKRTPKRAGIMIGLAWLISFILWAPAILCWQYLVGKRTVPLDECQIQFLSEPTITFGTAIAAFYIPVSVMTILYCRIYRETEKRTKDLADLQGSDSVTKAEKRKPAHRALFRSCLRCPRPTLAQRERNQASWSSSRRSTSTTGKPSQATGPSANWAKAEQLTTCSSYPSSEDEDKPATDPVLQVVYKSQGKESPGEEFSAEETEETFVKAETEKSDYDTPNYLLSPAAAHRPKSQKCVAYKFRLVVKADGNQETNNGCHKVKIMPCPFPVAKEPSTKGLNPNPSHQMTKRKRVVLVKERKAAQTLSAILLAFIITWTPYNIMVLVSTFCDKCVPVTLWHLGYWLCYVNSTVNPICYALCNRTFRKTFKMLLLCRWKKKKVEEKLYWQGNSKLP

[7] = target: PDE5 (h) (non-selective) (Homo sapiens, UniProt O76074); assay: biochemical
[8] = target: T7, Nav1.2 (Homo sapiens, UniProt Q99250); assay: Ion channel selectivity patch clamp; type: cell-based
T7 construct: The cDNAs for various full-length ion channels were subcloned into pcDNA5/TO; expressed in transfected cells

[9] = target: T8, GABAA1 (h) (α1,β2,γ2) (Homo sapiens, UniProt P14867+P47870); type: binding; conditions: 1.0E-06 M
T8 construct: host or cells: CHO cells
T8 sequence (P14867 28-456): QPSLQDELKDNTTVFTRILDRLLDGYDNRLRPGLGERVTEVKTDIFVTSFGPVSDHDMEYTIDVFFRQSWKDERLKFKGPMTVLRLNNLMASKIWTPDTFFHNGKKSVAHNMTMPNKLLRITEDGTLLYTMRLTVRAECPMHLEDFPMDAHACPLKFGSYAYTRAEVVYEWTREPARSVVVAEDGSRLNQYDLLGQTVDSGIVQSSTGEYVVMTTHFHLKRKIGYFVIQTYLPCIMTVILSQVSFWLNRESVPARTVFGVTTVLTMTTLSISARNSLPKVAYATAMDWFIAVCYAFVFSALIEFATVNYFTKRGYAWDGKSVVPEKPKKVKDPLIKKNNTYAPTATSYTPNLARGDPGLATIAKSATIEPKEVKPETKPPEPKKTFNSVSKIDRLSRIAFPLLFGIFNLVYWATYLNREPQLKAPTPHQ
T8 sequence (P47870 25-512 limits assumed): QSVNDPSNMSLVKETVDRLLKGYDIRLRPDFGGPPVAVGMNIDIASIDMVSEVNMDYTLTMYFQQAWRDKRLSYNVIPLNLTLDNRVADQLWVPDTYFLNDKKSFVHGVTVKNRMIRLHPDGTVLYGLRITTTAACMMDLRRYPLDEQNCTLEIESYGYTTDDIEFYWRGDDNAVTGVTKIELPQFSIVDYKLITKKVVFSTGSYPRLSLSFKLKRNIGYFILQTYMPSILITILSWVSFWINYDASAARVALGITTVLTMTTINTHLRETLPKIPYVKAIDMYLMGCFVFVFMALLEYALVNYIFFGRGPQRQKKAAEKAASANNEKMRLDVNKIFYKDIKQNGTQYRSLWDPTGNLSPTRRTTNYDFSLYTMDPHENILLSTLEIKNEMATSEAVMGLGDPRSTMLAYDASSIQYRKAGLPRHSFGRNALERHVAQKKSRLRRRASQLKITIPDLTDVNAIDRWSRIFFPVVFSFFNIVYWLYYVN
T8 sequence (P18507 40-475 partner): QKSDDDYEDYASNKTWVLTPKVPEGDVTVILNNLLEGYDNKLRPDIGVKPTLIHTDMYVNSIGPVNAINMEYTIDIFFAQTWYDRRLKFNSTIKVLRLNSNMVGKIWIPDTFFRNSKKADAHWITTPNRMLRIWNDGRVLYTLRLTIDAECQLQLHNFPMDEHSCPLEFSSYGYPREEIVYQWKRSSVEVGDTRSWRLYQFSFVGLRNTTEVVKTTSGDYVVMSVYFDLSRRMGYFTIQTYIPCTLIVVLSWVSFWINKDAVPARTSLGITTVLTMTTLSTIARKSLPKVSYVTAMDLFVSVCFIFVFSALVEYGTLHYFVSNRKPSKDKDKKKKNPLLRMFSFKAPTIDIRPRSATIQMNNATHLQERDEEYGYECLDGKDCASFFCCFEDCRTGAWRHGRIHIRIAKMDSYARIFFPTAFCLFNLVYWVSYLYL

[10] = target: T9, 5-HT2A (h) (Homo sapiens, UniProt P28223); type: binding; conditions: 1.0E-06 M
T9 construct: host or cells: HEK-293 cells
T9 sequence (P28223 whole entry): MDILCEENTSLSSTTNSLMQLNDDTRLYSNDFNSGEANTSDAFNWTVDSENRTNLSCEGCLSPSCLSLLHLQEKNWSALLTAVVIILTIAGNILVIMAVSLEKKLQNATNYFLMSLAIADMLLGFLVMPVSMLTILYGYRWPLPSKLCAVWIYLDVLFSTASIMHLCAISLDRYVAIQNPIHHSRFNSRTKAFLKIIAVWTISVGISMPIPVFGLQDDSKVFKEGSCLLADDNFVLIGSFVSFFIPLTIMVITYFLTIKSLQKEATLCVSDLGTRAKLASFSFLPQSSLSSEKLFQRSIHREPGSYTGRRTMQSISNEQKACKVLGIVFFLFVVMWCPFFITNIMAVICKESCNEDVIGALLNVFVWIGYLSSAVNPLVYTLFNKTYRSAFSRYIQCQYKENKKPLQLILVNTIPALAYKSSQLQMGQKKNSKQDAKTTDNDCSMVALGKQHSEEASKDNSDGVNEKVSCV

[11] = target: T10, acetylcholinesterase (h) (Homo sapiens, UniProt P22303); assay: enzyme assay; type: biochemical; conditions: 1.0E-06 M
T10 construct: host or cells: HEK-293 cells
T10 sequence (P22303 32-614): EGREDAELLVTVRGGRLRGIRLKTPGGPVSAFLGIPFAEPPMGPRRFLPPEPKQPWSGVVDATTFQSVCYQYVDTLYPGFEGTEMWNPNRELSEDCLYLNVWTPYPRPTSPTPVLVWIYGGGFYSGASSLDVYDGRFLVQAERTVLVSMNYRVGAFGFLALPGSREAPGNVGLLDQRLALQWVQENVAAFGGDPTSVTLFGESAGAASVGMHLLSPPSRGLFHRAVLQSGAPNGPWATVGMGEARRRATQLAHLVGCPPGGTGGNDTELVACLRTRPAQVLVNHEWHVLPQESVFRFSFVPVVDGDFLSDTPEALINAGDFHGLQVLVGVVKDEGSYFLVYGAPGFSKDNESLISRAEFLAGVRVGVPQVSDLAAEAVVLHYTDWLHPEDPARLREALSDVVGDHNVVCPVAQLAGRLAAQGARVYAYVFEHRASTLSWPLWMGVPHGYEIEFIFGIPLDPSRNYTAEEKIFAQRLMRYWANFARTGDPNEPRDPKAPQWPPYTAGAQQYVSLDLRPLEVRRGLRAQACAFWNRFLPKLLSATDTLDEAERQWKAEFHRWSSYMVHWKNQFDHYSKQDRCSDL

[12] = target: T11, 5-HT2C (h) (Homo sapiens, UniProt P28335); type: binding; conditions: 1 h, 1.0E-06 M
T11 construct: host or cells: HEK-293 cells
T11 sequence (P28335 33-458): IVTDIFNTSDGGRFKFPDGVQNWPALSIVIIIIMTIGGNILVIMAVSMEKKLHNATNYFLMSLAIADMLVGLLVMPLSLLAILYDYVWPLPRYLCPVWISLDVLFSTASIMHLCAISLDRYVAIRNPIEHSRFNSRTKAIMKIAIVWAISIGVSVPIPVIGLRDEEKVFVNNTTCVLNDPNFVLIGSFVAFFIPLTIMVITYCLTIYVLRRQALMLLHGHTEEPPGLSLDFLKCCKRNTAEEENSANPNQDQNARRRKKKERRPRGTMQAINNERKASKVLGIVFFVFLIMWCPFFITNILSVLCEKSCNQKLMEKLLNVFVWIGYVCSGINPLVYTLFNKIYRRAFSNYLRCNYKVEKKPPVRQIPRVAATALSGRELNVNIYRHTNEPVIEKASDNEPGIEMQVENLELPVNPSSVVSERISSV

| Structure (SMILES) | inhibition at 1 µM ([2]; read-out: % Inhibition 1st) [%] | inhibition at 1 µM ([2]; read-out: % Inhibition 2nd) [%] | inhibition at 1 µM ([2]; read-out: % Inhibition Mean) [%] | inhibition at 1 µM ([3]; read-out: % Inhibition 1st) [%] | inhibition at 1 µM ([3]; read-out: % Inhibition 2nd) [%] | inhibition at 1 µM ([3]; read-out: % Inhibition Mean) [%] | inhibition at 1 µM ([4]; read-out: % Inhibition 1st) [%] | inhibition at 1 µM ([4]; read-out: % Inhibition 2nd) [%] | inhibition at 1 µM ([4]; read-out: % Inhibition Mean) [%] | inhibition at 1 µM ([6]; read-out: % Inhibition 1st) [%] | inhibition at 1 µM ([6]; read-out: % Inhibition 2nd) [%] | inhibition at 1 µM ([6]; read-out: % Inhibition Mean) [%] | inhibition at 1 µM ([7]; read-out: % Inhibition 1st) [%] | inhibition at 1 µM ([7]; read-out: % Inhibition 2nd) [%] | inhibition at 1 µM ([7]; read-out: % Inhibition Mean) [%] | IC50 [8] [nM] | inhibition at 1 µM ([9]; read-out: % Inhibition 1st) [%] | inhibition at 1 µM ([9]; read-out: % Inhibition 2nd) [%] | inhibition at 1 µM ([9]; read-out: % Inhibition Mean) [%] | inhibition at 1 µM ([10]; read-out: % Inhibition 1st) [%] | also measured |
| --- | --- | --- | --- | --- | --- | --- | --- | --- | --- | --- | --- | --- | --- | --- | --- | --- | --- | --- | --- | --- | --- |
| Cn1c(=O)n(CCCO)c(=O)c2c1nc(Oc1cccc(Cl)c1)n2Cc1ccc(Cl)cc1 [HC-070] | 4.7 | 2.6 | 3.7 | 3.6 | 6.4 | 5 | -15.6 | -11.4 | -13.5 | -7.3 | 10.1 | 1.4 | 27.3 | 50.4 | 38.9 | > 1900 | 27.9 | 16.4 | 22.1 | -1.3 | IC50 ([1]; 2-10 µM AITC, read-out: IC50): > 1900 nM; IC50 ([5]; 30 µM 2-APB, read-out: IC50): > 1900 nM; inhibition at 1 µM ([10]; read-out: % Inhibition 2nd): 6.1%; inhibition at 1 µM ([10]; read-out: % Inhibition Mean): 2.4%; inhibition at 1 µM ([11]; read-out: % Inhibition 1st): 2.1%; inhibition at 1 µM ([11]; read-out: % Inhibition 2nd): -0.7%; inhibition at 1 µM ([11]; read-out: % Inhibition Mean): 0.7%; inhibition at 1 µM ([12]; read-out: % Inhibition 1st): -13.4%; inhibition at 1 µM ([12]; read-out: % Inhibition 2nd): -9.5%; inhibition at 1 µM ([12]; read-out: % Inhibition Mean): -11.5% |
| Cn1c(=O)n(CCCO)c(=O)c2c1nc(Oc1cccc(OC(F)(F)F)c1)n2Cc1ccc(Cl)cc1 [HC-608] | -4.1 | 9.5 | 2.7 | 4 | 9.7 | 6.9 | -8.1 | -0.9 | -4.5 | -15.6 | -12.8 | -14.2 | 54.6 | 59.4 | 57 | > 1640 | 0.6 | 7.9 | 4.2 | 1.8 | IC50 [1]: > 1640 nM; IC50 [5]: > 1640 nM; inhibition at 1 µM ([10]; read-out: % Inhibition 2nd): -14.3%; inhibition at 1 µM ([10]; read-out: % Inhibition Mean): -6.2%; inhibition at 1 µM ([11]; read-out: % Inhibition 1st): -5.9%; inhibition at 1 µM ([11]; read-out: % Inhibition 2nd): -3.5%; inhibition at 1 µM ([11]; read-out: % Inhibition Mean): -4.7%; inhibition at 1 µM ([12]; read-out: % Inhibition 1st): -8.5%; inhibition at 1 µM ([12]; read-out: % Inhibition 2nd): -4.7%; inhibition at 1 µM ([12]; read-out: % Inhibition Mean): -6.6% |
